Reference: patent US20040259942A1, “Modulation of stat activity” (priority 2001, published 2004)

Tests used:
MDA-MB-468 cells = assay: Cell proliferation assay (cell counting); type: cell-based, human; settings: for effect on proliferation over 48 hours: PD 153035 100 nM, PD 168393 2 μM
Procedure: (§1) Equal numbers of BR293 and MDA-MB-468 cells were seeded in MEM containing 10% FCS into 10 cm dishes. […]. For the 48 time points, fresh medium containing the appropriate inhibitor was applied to the cells after 24 hours. Controls were allowed to grow for 48 hours in the absence of inhibitor. Thereafter, all the cells were washed twice with ice cold PBS, harvested and counted under a phase-contrast microscope. Values are expressed as averages+S.D. (n=3).
(§2) Equal numbers of BR293, MCF-10F, MCF-7, MDA-MB-468, HKEK293 and COS1 cells were seeded in the appropriate growth medium into 10 cm dishes. Cells were allowed to grow in the presence of various concentrations of OdDHL or OHHL for 24 or 48 hours. For the 48-hour time points, fresh medium containing the appropriate inhibitor was applied to the cells after 24 hours. Controls were allowed to grow for 48 hours in the absence of inhibitor. Thereafter, all the cells were washed twice with ice cold PBS, harvested and counted under a phase-contrast microscope. Values are expressed as averages ±S.D. (n=3).

BR293 cells = assay: Cell proliferation assay (cell counting); type: cell-based, human; settings: for effect on proliferation over 48 hours: PD 153035 100 nM, PD 168393 2 μM
Procedure: as §1, §2

JAK2 = target: T1, JAK2 (Homo sapiens, UniProt O60674); assay: Serum-induced JAK2 tyrosine phosphorylation (immunoblot); type: cell-based; settings: BR293 cells; 2 hour time course; AG490 pre-treatment
T1 construct: endogenous in cells; host or cells: BR293
Procedure: (§3) For immunoprecipitation and immunoblotting experiments, cells were grown to confluence in 10 cm dishes and maintained in full medium or starved in serum-free medium overnight before the application of appropriate stimuli. Lysates were prepared in TBSN buffer (50 mM Tris-HCl pH7.5, 150 mM NaCl, 1 mM EDTA, 1% NP-40) supplemented with protease inhibitors (1 mM Na3 VO4, 10 mM Na4P2O7, 10 mM NaF, 5 mM EGTA, 10 mM Benzamidine, 0.2 mM PMSF and 1 μg/ml each of leupeptin, aprotinin, pepstatin). Lysates were cleared by centrifugation at 16,000×g for 10 minutes and used directly for immunoprecipitations or stored at −20° C. for further use.
(§4) Equal amounts of lysates were incubated with the appropriate antibody for 2 hours at 4° C.
(§5) Immune complexes were then allowed to bind to protein A-Sepharose beads for 1 hour at 4° C. and collected by centrifugation. Immunoprecipitates were washed three times in 100 mM Tris-HC1 pH 7.5, 100 nM NaCl, 1 mM EDTA, 0.1 mM PMSF, 0.5% NP-40. Thereafter, samples were taken up in sodium dodecyl sulphate (SDS) loading buffer and boiled for 5 min.
(§6) Samples were separated by electrophoresis through 6% polyacrylamide-SDS gels. Proteins were then transferred to polyvinylidene difluoride (PVDF) membranes with a semi-dry electroblotting apparatus. […]

STAT3 [1] = assay: Weak constitutive STAT3 DNA-binding in serum-starved cells (EMSA supershift); type: cell-based, human
STAT3 [2] = assay: STAT3 activation by conditioned medium (CM) from serum-stimulated BR293 cells; type: cell-based, human; settings: serum-starved BR293 cells treated with AG490
Procedure: OdDHL blocks the autocrine release of mitogens from BC cells (a) Equal numbers of BR293 cells were cultured in MEM alone, serum-free MEM conditioned by serum-stimulated BR293 cells for 2 hours, or the same supplemented with 5% FCS, as indicated. After 24 hours [^3H]-thymidine was added to the medium. After a further 18 hours, cells were harvested and analysed for incorporation of ^3H. Error bars denote SD (n=4). (b) BR293 cells were serum-starved (lane 1) or starved and stimulated with 10% FCS for 2 hours directly (lane 2) or after pretreatment with α-amanitin (1004/ml) for 2.5 hours (lane 3) or actinomycin D ([…]) for 10 min (lane 4). […] Cell lysates were prepared and analysed by Western blotting as described in the legend to FIG. 1a. […] Lysates were prepared from all the cells and analysed by Western blotting as described in the legend to FIG. 1a.
Serum-starved BR293 cells were stimulated with 10% foetal calf serum (FCS) and, after 2 hours, half the cells were harvested while the other cells were washed thoroughly and incubated for a further 4 hours in serum-free medium. […] Nuclear extracts were made from all the cells and analysed for STAT DNA-binding. […]

MCF-10F cells = settings: previously shown (refs 5, 11); cited from earlier work
BC cell = settings: ref (7); cited from earlier work
STAT3 [3] = assay: Serum-induced STAT3 tyrosine phosphorylation (immunoblot); type: cell-based, human; settings: BR293 cells; full medium, 2 hour time course; AG490 pre-treatment
Procedure: as §3, §4, §5
Samples were separated by electrophoresis through 6% polyacrylamide-SDS gels. Proteins were then transferred to polyvinylidene difluoride (PVDF) membranes with a semi-dry electroblotting apparatus. The membranes were incubated with appropriate primary antibodies at room temperature for 1 hour or 4° C. overnight according to suppliers' instructions, washed and stained with horseradish peroxidase-coupled secondary antibodies. The membranes were developed with an enhanced chemiluminescence kit (Amersham).
as §3, with “Na3VO4,” for “Na3 VO4,”, “aprotinin and” for “aprotinin,”, “use. AG490 was purchased from Sigma; PD153035 was provided by Glaxo-Smith-Kline and PD168393 was purchased from Calbiochem.” for “use.”
as §5, with “Equal amounts of lysates were incubated with the appropriate antibody for 2 hours at 4° C. Immune” for “Immune”, “in 10” for “in 100”, “mM Tris-HCl” for “mM Tris-HC1”, “100 mM” for “100 nM”

ErbB2 = assay: Tyrosine phosphorylation of ErbB2: immunoprecipitation and anti-phosphotyrosine immunoblot; type: cell-based, human; settings: EGF
Procedure: as §3, §4, §5, §6

ErbB3 = assay: Tyrosine phosphorylation of ErbB3: immunoprecipitation and anti-phosphotyrosine immunoblot; type: cell-based, human
Procedure: as §3, §4, §5, §6

T1 sequence (O60674 whole entry): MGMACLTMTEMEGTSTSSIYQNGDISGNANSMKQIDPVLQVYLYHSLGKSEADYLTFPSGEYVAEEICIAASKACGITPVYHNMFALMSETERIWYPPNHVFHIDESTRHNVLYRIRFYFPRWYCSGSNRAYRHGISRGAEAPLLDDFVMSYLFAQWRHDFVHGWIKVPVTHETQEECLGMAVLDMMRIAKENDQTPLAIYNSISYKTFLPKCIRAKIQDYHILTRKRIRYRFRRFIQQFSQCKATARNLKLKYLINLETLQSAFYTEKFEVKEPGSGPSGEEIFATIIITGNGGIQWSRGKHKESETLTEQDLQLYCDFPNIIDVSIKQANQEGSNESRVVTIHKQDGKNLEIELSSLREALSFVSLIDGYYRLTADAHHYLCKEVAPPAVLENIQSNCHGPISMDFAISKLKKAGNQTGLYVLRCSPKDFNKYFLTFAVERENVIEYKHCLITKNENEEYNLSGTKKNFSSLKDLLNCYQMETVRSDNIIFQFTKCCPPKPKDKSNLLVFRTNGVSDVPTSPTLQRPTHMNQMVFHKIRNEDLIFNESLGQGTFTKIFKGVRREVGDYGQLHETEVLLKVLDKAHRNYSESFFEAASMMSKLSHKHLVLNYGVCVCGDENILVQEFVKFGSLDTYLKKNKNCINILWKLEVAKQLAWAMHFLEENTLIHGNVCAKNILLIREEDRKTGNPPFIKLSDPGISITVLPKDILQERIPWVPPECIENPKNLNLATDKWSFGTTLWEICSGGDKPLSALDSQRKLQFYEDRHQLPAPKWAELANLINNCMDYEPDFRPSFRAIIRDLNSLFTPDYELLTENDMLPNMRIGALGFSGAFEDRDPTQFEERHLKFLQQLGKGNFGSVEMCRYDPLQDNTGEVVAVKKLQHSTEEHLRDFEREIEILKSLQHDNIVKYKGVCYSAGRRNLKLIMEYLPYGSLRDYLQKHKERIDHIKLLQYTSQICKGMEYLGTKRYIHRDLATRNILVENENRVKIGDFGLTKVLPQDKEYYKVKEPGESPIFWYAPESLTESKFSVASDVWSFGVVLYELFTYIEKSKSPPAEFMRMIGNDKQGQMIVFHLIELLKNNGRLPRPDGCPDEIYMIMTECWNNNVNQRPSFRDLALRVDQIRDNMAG

In the case of `N#C/C(=C/c1ccc(O)c(O)c1)C(=O)NCc1ccccc1` [AG490], the “reduction of cell proliferation” value (MDA-MB-468 cells; AG490 100 μM, over 48 hours) is reported as > 75%, the “reduction of cell proliferation” value (BR293 cells; AG490 100 μM, over 48 hours) is reported as > 75% and the “serum-stimulated tyrosine phosphorylation of JAK2” value (JAK2) is reported as “blocked”. The “weak STAT3 DNA-binding” value (STAT3 [1]; BT20 and MDA-MB-468 cells, 100 μM) was “unaffected”, the “STAT3 activation by conditioned medium from BR293 cells” value (STAT3 [2]) was “no inhibition was observed” and the “sensitivity to JAK inhibitor” value (MCF-10F cells) was “insensitive”. For the same molecule, the BC cell proliferation (BC cell) was “inhibits BC cell proliferation” and the “serum-stimulated STAT3 tyrosine phosphorylation” value (STAT3 [3]) was “blocked”.

In the case of `COc1cc2ncnc(Nc3cccc(Br)c3)c2cc1OC` [PD 153035], the “effect on proliferation over 48 hours” value (MDA-MB-468 cells) is reported as “no effect on their proliferation”, the “effect on proliferation over 48 hours” value (BR293 cells) is reported as “no effect on their proliferation” and the “weak, heterogeneous DNA-binding by STAT3 in extracts from serum-starved cells” value (STAT3 [1]; MDA-MB-468 cells, 100 nM) is reported as “had no effect”.

In the case of `C=CC(=O)Nc1ccc2ncnc(Nc3cccc(Br)c3)c2c1` [PD 168393], the “effect on proliferation over 48 hours” value (MDA-MB-468 cells) is reported as “no effect on their proliferation” and the “effect on proliferation over 48 hours” value (BR293 cells) is reported as “no effect on their proliferation”.

In the case of “EGF: Epidermal Growth Factor, used as stimulus”, the “stimulation of ErbB2 tyrosine phosphorylation” value (ErbB2; BR293 cells) is reported as 3.2 fold, the “stimulation of ErbB2 tyrosine phosphorylation” value (ErbB2; T47D cells) is reported as 5.7 fold and the “induction of ErbB3 tyrosine phosphorylation” value (ErbB3; cell line co-expressing ErbB1, first value printed (cell line not given)) is reported as 6.6 fold. The “induction of ErbB3 tyrosine phosphorylation” value (ErbB3; cell line co-expressing ErbB1, second value printed (cell line not given)) was 6.3 fold.
